Data set [1] deals with Mus musculus. The experiment in a line: Antiinflammatory activity in mouse assessed as inhibition of HMGB1-induced hyperpermeability of Evans blue dye to peritoneal cavity at 403.4 ug/kg administered 16 hrs after HMGB1 challenge measured after 6 hrs. It is filed as functional.
Data set [2] concerns HUVEC. The experiment in a line: Inhibition of HMGB1-induced hyperpermeability of Evans blue-bound albumin in human HUVEC at 10 uM after 6 hrs by spectrophotometric analysis relative to control. In kind it is functional.
Data set [3] relates to Mus musculus. The data set is described as follows: Antiinflammatory activity in mouse assessed as inhibition of HMGB1-induced leukocyte migration into peritoneal cavity at 403.4 ug/kg administered 16 hrs after HMGB1 challenge measured after 6 hrs by light microscopic analysis. In kind it is functional.
In data set [4] the test system is HUVEC. The data set is described as follows: Cytotoxicity against human HUVEC assessed as cell viability up to 20 uM after 24 hrs. It is filed as cell-based.
For data set [5], the system named is HUVEC. The data set is described as follows: Antiinflammatory activity in human HUVEC assessed as inhibition of HMGB1-induced human neutrophils migration into cells at 10 uM after 6 hrs using crystal violet staining. In kind it is functional.
In data set [6] the test system is Mus musculus. The data set is described as follows: Antiinflammatory activity in mouse assessed as inhibition of HMGB1-induced leukocyte migration into peritoneal cavity at 342.4 ug/kg administered 16 hrs after HMGB1 challenge measured after 6 hrs by light microscopic analysis. It is filed as functional.
In data set [7] the test system is Mus musculus. The data set is described as follows: Antiinflammatory activity in mouse assessed as inhibition of HMGB1-induced hyperpermeability of Evans blue dye to peritoneal cavity at 342.4 ug/kg administered 16 hrs after HMGB1 challenge measured after 6 hrs. It is filed as functional.
The test system of data set [8] is Mus musculus. The data set is described as follows: Antiinflammatory activity in mouse assessed as inhibition of HMGB1-induced hyperpermeability of Evans blue dye to peritoneal cavity at 402.4 ug/kg administered 16 hrs after HMGB1 challenge measured after 6 hrs. In kind it is functional.
Data set [9] relates to Mus musculus. The experiment in a line: Antiinflammatory activity in mouse assessed as inhibition of HMGB1-induced leukocyte migration into peritoneal cavity at 402.4 ug/kg administered 16 hrs after HMGB1 challenge measured after 6 hrs by light microscopic analysis. It is filed as functional.
In data set [10] the test system is Mus musculus. The experiment in a line: Antiinflammatory activity in mouse assessed as inhibition of HMGB1-induced leukocyte migration into peritoneal cavity at 372.4 ug/kg administered 16 hrs after HMGB1 challenge measured after 6 hrs by light microscopic analysis. It is filed as functional.
The test system of data set [11] is Mus musculus. The experiment in a line: Antiinflammatory activity in mouse assessed as inhibition of HMGB1-induced hyperpermeability of Evans blue dye to peritoneal cavity at 372.4 ug/kg administered 16 hrs after HMGB1 challenge measured after 6 hrs. In kind it is functional.

Structures are written as SMILES.

4 compounds from ChEMBL document CHEMBL3621066, “Vascular barrier protective effects of 3-N- or 3-O-cinnamoyl carbazole derivatives” (Bioorg Med Chem Lett, 2015) can be followed below.

As usually defined, the inhibition in vivo is the drop in the measured response relative to a control, in per cent. What is called inhibition is the percentage by which the read-out fell short of the control.

With `COc1cc(/C=C/C(=O)Oc2ccc3[nH]c4ccccc4c3c2)cc(OC)c1OC`, the inhibition in vivo at 0.4034 mg/kg in the data set with Mus musculus [1] was 58.9%; with Mus musculus [3], 61.2%. Further, the inhibition at 10 µM in the data set on HUVEC [2] is 70.2%; with HUVEC [5] it was 65.4%. Besides, the Activity result in the data set on HUVEC [4] was “Non-toxic”.

Regarding `COc1ccc(/C=C/C(=O)Nc2ccc3[nH]c4ccccc4c3c2)cc1`, the inhibition in vivo at 0.3424 mg/kg in the data set on Mus musculus [6] is 0.8%; in the data set on Mus musculus [7], 1.4%. Also, the inhibition at 10 µM was found to be 3.6% in the data set on HUVEC [2] and 4.8% in the data set with HUVEC [5]. The Activity result in the data set on HUVEC [4] is reported as “Non-toxic”.

`COc1cc(/C=C/C(=O)Nc2ccc3[nH]c4ccccc4c3c2)cc(OC)c1OC`: the inhibition in vivo at 0.4024 mg/kg with Mus musculus [8] came out at 57.5%; in the data set with Mus musculus [9], 60.3%. Moreover, the inhibition at 10 µM in the data set with HUVEC [2] came out at 68.4%; in the data set on HUVEC [5], 62%. Further, the Activity result in the data set on HUVEC [4] was “Non-toxic”.

Take `COc1ccc(/C=C/C(=O)Nc2ccc3[nH]c4ccccc4c3c2)cc1OC`: the inhibition at 10 µM in the data set on HUVEC [2] came to 42.9%; in the data set with HUVEC [5], 43.5%. The inhibition in vivo at 0.3724 mg/kg in the data set with Mus musculus [10] was determined as 39%; with Mus musculus [11] it was 26.2%. In addition, in the data set with HUVEC [4], the Activity entry is listed as “Non-toxic”.
